Tested on: Sprague Dawley rats, 6-OHDA lesion
Assay: Amphetamine-induced rotations, moderate 6-OHDA hemi-parkinsonian rat model (study 2)
Format: in vivo
Conditions: more severe (40%) lesion, three injections 15 mg/kg i.p., vs vehicle
Description: Rats were treated with 2LS98Lac or saline (vehicle) as outlined in the Schemes in Figures 9A,B via intraperitoneal (i.p.) injection (15 mg/kg). All animals were made hemi-parkinsonian with unilateral, striatal 6-hydroxydopamine (Sigma Aldrich, St. Louis, MO) injections. After surgery, behavioral assessments were done at 2- and 4-weeks post-surgery. 24 h after the last test animals were either euthanized and whole brains were harvested for future biochemical analysis or perfused and brains collected for immunohistochemistry and stereological assessment of tyrosine hydroxylase-positive (TH+) cells remaining in the SNc. In study 1: n = 16 each group were included, and all underwent the behavioral analysis: n = 16, and for the stereology in the SNc, n = 8 each group was used. […]
In order to pharmacologically assess the degree of dopaminergic (DA) depletion in the lesioned side, animals were given amphetamine, an indirectly acting DA agonist and placed into a plexiglass cylinder (38 cm tall × 38 cm across) enclosed in an open field box ([Yue et al., 2011]). Dextro-amphetamine in sterile 0.9% saline (Sigma-Aldrich) was injected i.p. at 5 mg/kg, and rotations were recorded from above using Logitech HD web cameras connected to an Acer Aspire SWS-015 computer. An observer blinded to the groups counted rotations in both the ipsilateral and contralateral rotations for the entire 70 min period. […]

[2H]C([2H])([2H])C([2H])(C([2H])([2H])[2H])[C@]([2H])(NC(=O)[C@H](C)NC(=O)[C@H](C)NC(=O)[C@H](CC(C)C)NC(=O)[C@H](Cc1ccc(O)cc1)NC(=O)[C@H](CCCCN)NC(=O)[C@H](CCCCN)NC(=O)[C@@]([2H])(NC(=O)[C@H](C)NC(=O)[C@H](CC(C)C)NC(=O)[C@H](CCC(N)=O)NC(=O)[C@H](CCCCN)NC(=O)[C@H](CCCNC(=N)N)NC(=O)[C@H](Cc1ccc(O)cc1)NC(=O)[C@H](CCCNC(=N)N)NC(=O)[C@H](CO)NC(=O)[C@H](Cc1ccc(O)cc1)NC(=O)[C@H](CO)NC(=O)[C@H](CC(=O)O)NC(=O)[C@@H](NC(=O)[C@H](Cc1ccccc1)NC(=O)[C@@H](NC(=O)CNC(=O)[C@H](CC(=O)O)NC(=O)[C@H](CO)NC(=O)[C@@H](N)Cc1c[nH]cn1)[C@@H](C)CC)[C@@H](C)O)C([2H])(C([2H])([2H])[2H])C([2H])([2H])[2H])C(=O)N[C@@H](CC(C)C)C(=O)N[C@@H](CO[C@@H]1O[C@H](CO)[C@@H](O[C@@H]2O[C@H](CO)[C@H](O)[C@H](O)[C@H]2O)[C@H](O)[C@H]1O)C(N)=O [Compound 2LS98Lac]
Amphetamine-induced rotations at 2 weeks post-lesion: did not see a difference | Amphetamine-induced rotations at 4 weeks post-lesion: did not see a difference

Reference: paper PMC8887546, “Design and Synthesis of Brain Penetrant Glycopeptide Analogues of PACAP With Neuroprotective Potential for Traumatic Brain Injury and Parkinsonism” (Frontiers in drug discovery, 2022)
